# Reference: US5616684A, “Cyclic peptides and use thereof” (priority 1991, dated 1997)
# Read-outs that look alike come from different tables or passages of the source.
# Conditions: amide bond, 4 steps
compound,measurement,setting,value
CC(C)C[C@@H]1NC(=O)[C@@H](CC(C)C)NC(=O)[C@H](C)NC(=O)[C@H](CC(=O)O)NC(=O)[C@@H](CC(=O)O)NC(=O)[C@@H](Cc2c[nH]c3ccccc23)NC1=O [cyclo[-D-Asp-Asp-Ala-D-Leu-Leu-D-Trp-]],"ring closure, yield of all isomers","from CC(C)C[C@H](NC(=O)[C@@H](CC(C)C)NC(=O)[C@H](C)NC(=O)[C@H](CC(=O)OCc1ccccc1)NC(=O)[C@@H](CC(=O)OCc1ccccc1)NC(=O)[C@@H](Cc1c[nH]c2ccccc12)NC(=O)OC(C)(C)C)C(=O)O, HONB/DCC (active ester), TEA, DMF, 5.04 mM, 16.0 h",17.8%
CC(C)C[C@@H]1NC(=O)[C@@H](CC(C)C)NC(=O)[C@H](C)NC(=O)[C@H](CCC(=O)O)NC(=O)[C@@H](CC(=O)O)NC(=O)[C@@H](Cc2c[nH]c3ccccc23)NC1=O [cyclo[-D-Asp-Glu-Ala-D-Leu-Leu-D-Trp-]],"ring closure, yield of all isomers","from CC(C)C[C@H](NC(=O)[C@@H](CC(C)C)NC(=O)[C@H](C)NC(=O)[C@H](CCC(=O)OCc1ccccc1)NC(=O)[C@@H](CC(=O)OCc1ccccc1)NC(=O)[C@@H](Cc1c[nH]c2ccccc12)NC(=O)OC(C)(C)C)C(=O)O, HONB/DCC (active ester), TEA, DMF, 4.97 mM, 16.0 h",20.6%
CC(C)C[C@@H]1NC(=O)[C@@H](CC(C)C)NC(=O)[C@H](C)NC(=O)CNC(=O)[C@@H](CC(=O)O)NC(=O)[C@@H](Cc2c[nH]c3ccccc23)NC1=O [cyclo[-D-Asp-Gly-Ala-D-Leu-Leu-D-Trp-]],"ring closure, yield of all isomers","from CC(C)C[C@H](NC(=O)[C@@H](CC(C)C)NC(=O)[C@H](C)NC(=O)CNC(=O)[C@@H](CC(=O)OCc1ccccc1)NC(=O)[C@@H](Cc1c[nH]c2ccccc12)NC(=O)OC(C)(C)C)C(=O)O, HONB/DCC (active ester), TEA, DMF, 5.9 mM, 16.0 h",19.2%
CC(C)C[C@@H]1NC(=O)[C@@H](CC(C)C)NC(=O)[C@H](CC(=O)O)NC(=O)[C@H](CCCNC(=O)Cc2c[nH]c3ccccc23)NC(=O)[C@@H](CC(=O)O)NC(=O)[C@@H](Cc2c[nH]c3ccccc23)NC1=O [cyclo[-D-Asp-Orn(COCH2 -Ind)-Asp-D-Leu-Leu-D-Trp-]],"ring closure, yield of all isomers",from CC(C)C[C@H](NC(=O)[C@@H](CC(C)C)NC(=O)[C@H](CC(=O)OCc1ccccc1)NC(=O)[C@H](CCCNC(=O)Cc1c[nH]c2ccccc12)NC(=O)OC(C)(C)C)C(=O)N[C@H](Cc1c[nH]c2ccccc12)C(=O)N[C@H](CC(=O)OCc1ccccc1)C(=O)O,12.5%
CC(C)C[C@@H]1NC(=O)[C@@H](CC(C)C)NC(=O)[C@H](CC(=O)O)NC(=O)[C@H](CCCNC(=O)CCc2ccccc2)NC(=O)[C@@H](CC(=O)O)NC(=O)[C@@H](Cc2c[nH]c3ccccc23)NC1=O [cyclo[-D-Asp-Orn(COCH2 CH2 Ph)-Asp-D-Leu-Leu-D-Trp-]],"ring closure, yield of all isomers","from CC(C)C[C@H](NC(=O)[C@@H](CC(C)C)NC(=O)[C@H](CC(=O)OCc1ccccc1)NC(=O)[C@H](CCCNC(=O)CCc1ccccc1)NC(=O)OC(C)(C)C)C(=O)N[C@H](Cc1c[nH]c2ccccc12)C(=O)N[C@H](CC(=O)OCc1ccccc1)C(=O)O, HONB/DCC (active ester), TEA, DMF, 5.05 mM, 16.0 h",40.9%
CC(C)C[C@@H]1NC(=O)[C@@H](CC(C)C)NC(=O)[C@H](CC(=O)O)NC(=O)[C@H](CCCNC(=O)Cc2ccccc2)NC(=O)[C@@H](CC(=O)O)NC(=O)[C@@H](Cc2c[nH]c3ccccc23)NC1=O [cyclo[-D-Asp-Orn(COCH2 Ph)-Asp-D-Leu-Leu-D-Trp-]],"ring closure, yield of all isomers","from CC(C)C[C@H](NC(=O)[C@@H](CC(C)C)NC(=O)[C@H](CC(=O)OCc1ccccc1)NC(=O)[C@H](CCCNC(=O)Cc1ccccc1)NC(=O)OC(C)(C)C)C(=O)N[C@H](Cc1c[nH]c2ccccc12)C(=O)N[C@H](CC(=O)OCc1ccccc1)C(=O)O, HONB/DCC (active ester), TEA, DMF, 4.66 mM",2.9%
CC(C)C[C@@H]1NC(=O)[C@@H](CC(C)C)NC(=O)[C@H](CC(=O)O)NC(=O)[C@H](CCCNC(=O)c2ccccc2)NC(=O)[C@@H](CC(=O)O)NC(=O)[C@@H](Cc2c[nH]c3ccccc23)NC1=O [cyclo[-D-Asp-Orn(COPh)-Asp-D-Leu-Leu-D-Trp-]],"ring closure, yield of all isomers","from CC(C)C[C@H](NC(=O)[C@@H](CC(C)C)NC(=O)[C@H](CC(=O)OCc1ccccc1)NC(=O)[C@H](CCCNC(=O)c1ccccc1)NC(=O)OC(C)(C)C)C(=O)N[C@H](Cc1c[nH]c2ccccc12)C(=O)N[C@H](CC(=O)OCc1ccccc1)C(=O)O, HONB/DCC (active ester), TEA, DMF, 5.03 mM",48.1%
CC(C)C[C@@H]1NC(=O)[C@@H](CC(C)C)NC(=O)[C@H](CC(=O)O)NC(=O)[C@@H]2CCCN2C(=O)[C@@H](CC(=O)O)NC(=O)[C@@H](Cc2c[nH]c3ccccc23)NC1=O [cyclo[-D-Asp-Pro-Asp-D-Leu-Leu-D-Trp-]],"ring closure, yield of all isomers","from CC(C)C[C@H](NC(=O)[C@@H](CC(C)C)NC(=O)[C@H](CC(=O)OCc1ccccc1)NC(=O)[C@@H]1CCCN1C(=O)[C@@H](CC(=O)OCc1ccccc1)NC(=O)[C@@H](Cc1c[nH]c2ccccc12)NC(=O)OC(C)(C)C)C(=O)O, HONB/DCC (ONB active ester), TEA, DMF, 5.1 mM, 16.0 h",47.4%
CC(C)C[C@@H]1NC(=O)C2(CCC2)NC(=O)[C@H](CC(=O)O)NC(=O)[C@H](Cc2c[nH]c3ccccc23)NC(=O)[C@@H](CC(=O)O)NC(=O)[C@@H](Cc2c[nH]c3ccccc23)NC1=O [cyclo[-D-Asp-Trp-Asp-Acbu-Leu-D-Trp-]],"ring closure, yield of all isomers","from CC(C)C[C@H](NC(=O)C1(NC(=O)OC(C)(C)C)CCC1)C(=O)N[C@H](Cc1c[nH]c2ccccc12)C(=O)N[C@H](CC(=O)OCc1ccccc1)C(=O)N[C@@H](Cc1c[nH]c2ccccc12)C(=O)N[C@@H](CC(=O)OCc1ccccc1)C(=O)O, HONB/DCC (active ester), TEA, DMF, 4.95 mM",10.4%
CC(C)C[C@@H]1NC(=O)[C@@H](CC(C)C)NC(=O)[C@H](CC(=O)O)NC(=O)[C@H](Cc2c[nH]c3ccccc23)NC(=O)[C@@H](CC(=O)O)NC(=O)[C@@H](Cc2c[nH]c3ccccc23)NC1=O [cyclo[-D-Asp-Trp-Asp-D-Leu-Leu-D-Trp-]],"ring closure, yield of all isomers","from CC(C)C[C@H](NC(=O)[C@@H](CC(C)C)NC(=O)[C@H](CC(=O)OCc1ccccc1)NC(=O)[C@H](Cc1c[nH]c2ccccc12)NC(=O)[C@@H](CC(=O)OCc1ccccc1)NC(=O)[C@@H](Cc1c[nH]c2ccccc12)NC(=O)OC(C)(C)C)C(=O)O, HONB/DCC (ONB active ester), TEA, DMF, 4.97 mM, 16.0 h",52.9%
CC(C)C[C@@H]1NC(=O)[C@@H](c2cccs2)NC(=O)[C@H](CC(=O)O)NC(=O)[C@H](Cc2c[nH]c3ccccc23)NC(=O)[C@@H](CC(=O)O)NC(=O)[C@@H](Cc2c[nH]c3ccccc23)NC1=O [cyclo[-D-Asp-Trp-Asp-D-Thg(2)-Leu-D-Trp-]],"ring closure, yield of all isomers","from CC(C)C[C@H](NC(=O)[C@H](NC(=O)OC(C)(C)C)c1cccs1)C(=O)N[C@H](Cc1c[nH]c2ccccc12)C(=O)N[C@H](CC(=O)OCc1ccccc1)C(=O)N[C@@H](Cc1c[nH]c2ccccc12)C(=O)N[C@@H](CC(=O)OCc1ccccc1)C(=O)O, HONB/DCC (active ester), TEA, DMF, 5.06 mM",4.6%
CC(C)C[C@@H]1NC(=O)[C@@H](C(C)(C)C)NC(=O)[C@H](CC(=O)O)NC(=O)[C@H](Cc2c[nH]c3ccccc23)NC(=O)[C@@H](CC(=O)O)NC(=O)[C@@H](Cc2c[nH]c3ccccc23)NC1=O [cyclo[-D-Asp-Trp-Asp-D-tLeu-Leu-D-Trp-]],"ring closure, yield of all isomers","from CC(C)C[C@H](NC(=O)[C@H](NC(=O)OC(C)(C)C)C(C)(C)C)C(=O)N[C@H](Cc1c[nH]c2ccccc12)C(=O)N[C@H](CC(=O)OCc1ccccc1)C(=O)N[C@@H](Cc1c[nH]c2ccccc12)C(=O)N[C@@H](CC(=O)OCc1ccccc1)C(=O)O, HONB/DCC (active ester), then TEA, DMF, 5.03 mM, 16.0 h",42.8%
CC(C)C[C@@H]1NC(=O)[C@@H](CC(C)(C)C)NC(=O)[C@H](CC(=O)O)NC(=O)[C@H](Cc2c[nH]c3ccccc23)NC(=O)[C@@H](CC(=O)O)NC(=O)[C@@H](Cc2c[nH]c3ccccc23)NC1=O [cyclo[-D-Asp-Trp-Asp-D-γMeLeu-Leu-D-Trp-]],"ring closure, yield of all isomers","from CC(C)C[C@H](NC(=O)[C@@H](CC(C)(C)C)NC(=O)OC(C)(C)C)C(=O)N[C@H](Cc1c[nH]c2ccccc12)C(=O)N[C@H](CC(=O)OCc1ccccc1)C(=O)N[C@@H](Cc1c[nH]c2ccccc12)C(=O)N[C@@H](CC(=O)OCc1ccccc1)C(=O)O, HONB/DCC (active ester), then TEA, DMF, 4.97 mM, 16.0 h",51.5%
